Test results taken from patent US9428460B2, “N-[4-(quinolin-4-yloxy)cyclohexyl(methyl)](hetero)arylcarboxamides as androgen receptor antagonists, production and use thereof as medicinal products” (BAYER PHARMA AKTIENGESELLSCHAFT, priority 2012, dated 2016).

Molecular target: androgen receptor mutant W741C (Homo sapiens (Human), UniProt P10275, W742C)
Assay: Transactivation assay for the androgen receptor mutant W741C (transfected PC-3 cells)
Type: cell-based
Conditions: in the presence of 1×10^−10 M R1881, 24 hours
Description: PC-3 cells (Kaighn et al., Invest. Urol. 17: 16-23, 1979) were plated out at a density of 10000 cells per well of a 96-well cell culture plate in RMPI 1640 medium (F1235, Biochrom AG, Berlin, Germany), which contained activated charcoal-treated calf serum (FCS Serum Gold, PAA Laboratories) at a concentration of 5% (v/v). On the next day the cells were transiently transfected with the pSG5-vector (#216201 Stratagene), which contained the sequence of the androgen receptor mutant W741C (Haapala et al., Lab Invest. 81(12): 1647-51, 2001), and with a reporter plasmid based on pGL4.14 (#E6691, Promega) with the luciferase-gene (from Photinus pyralis) under the control of the MMTV promoter (Cato et al., EMBO J. 6: 363-8, 1987). The cells were treated with the test substances in concentrations from 1×10^−8 to 1×10^−10 M in the presence of 1×10^−10 M R1881 and were incubated overnight at 37° C. and 5% CO2. After 24 hours, 100 μl of Steady Glo Lysis and Detection reagent (E2550, Promega) was added per well and the luminescence was read in a Victor3 Luminometer (PerkinElmer) for 1 second per well. The luminescence values obtained were normalized, wherein 100% corresponded to the effect of the unstimulated control (without R1881), and 0% corresponded to the effect of the stimulated control (R1881 plus DMSO instead of test substance). The IC50 value was determined by regression analysis based on a four-parameter equation (minimum, maximum, IC50, Hill coefficient; Y=Max+(Min−Max)/(1+(X/IC50)^Hill)).

Sequence of androgen receptor mutant W741C (P10275 whole entry W742C): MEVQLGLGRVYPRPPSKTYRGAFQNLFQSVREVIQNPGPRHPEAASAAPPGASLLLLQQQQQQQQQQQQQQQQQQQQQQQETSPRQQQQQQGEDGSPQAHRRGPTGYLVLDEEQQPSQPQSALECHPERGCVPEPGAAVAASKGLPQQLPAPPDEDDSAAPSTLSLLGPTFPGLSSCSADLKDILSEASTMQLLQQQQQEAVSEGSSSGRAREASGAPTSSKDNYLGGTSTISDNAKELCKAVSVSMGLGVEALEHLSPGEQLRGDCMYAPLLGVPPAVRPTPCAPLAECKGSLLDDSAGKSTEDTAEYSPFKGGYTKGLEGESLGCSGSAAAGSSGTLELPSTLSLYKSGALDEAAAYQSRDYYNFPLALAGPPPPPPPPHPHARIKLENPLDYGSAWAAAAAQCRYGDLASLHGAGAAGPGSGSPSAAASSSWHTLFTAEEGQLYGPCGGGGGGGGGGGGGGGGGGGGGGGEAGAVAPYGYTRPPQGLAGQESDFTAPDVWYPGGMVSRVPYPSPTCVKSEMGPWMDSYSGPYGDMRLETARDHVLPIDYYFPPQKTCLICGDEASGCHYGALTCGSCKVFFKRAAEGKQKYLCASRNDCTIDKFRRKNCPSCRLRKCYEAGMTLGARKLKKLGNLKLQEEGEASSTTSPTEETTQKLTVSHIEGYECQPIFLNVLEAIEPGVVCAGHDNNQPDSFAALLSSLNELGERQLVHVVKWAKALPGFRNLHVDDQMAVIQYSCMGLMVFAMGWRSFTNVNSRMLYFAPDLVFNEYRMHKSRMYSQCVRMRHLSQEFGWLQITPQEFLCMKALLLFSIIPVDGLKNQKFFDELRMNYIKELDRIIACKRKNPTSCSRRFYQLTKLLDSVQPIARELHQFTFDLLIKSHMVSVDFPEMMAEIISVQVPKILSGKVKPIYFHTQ

- IC50: 30 nM
Structure (SMILES): N#Cc1cccc2c(O[C@H]3CC[C@H](NC(=O)c4cccc(F)c4)CC3)ccnc12 [Example 23, N-{trans-4-[(8-cyanoquinolin-4-yl)oxy]cyclohexyl}-3-fluorobenzamide]
